Entries after “also recorded” stand apart in the source; their conditions may differ.
Tests used:
hAChE = biological target: T1, hAChE (Homo sapiens, UniProt P22303); test: biochemical; settings: for Selectivity ratio: (IC50 of BuChE)/(IC50 of AChE); for IC50: tris-HCl buffer pH 8.0, read-out: IC50 ± SE hAChE
T1 construct: purchased Sigma Aldrich
Method: (§1) Himedia supplied Acetylthiocholine iodide (AthCI), Butyrylthiocholine iodide (BthCI), and 5,5′-dithiobis (2-nitrobenzoic acid) (DTNB-reagent). […] AChE (50 μL, 1.00 U mL^−1) or BuChE (50 μL, 0.6 U mL^−1) and 20 μL of the test or standard compounds were incubated in a 96 well plate for 30 minutes at room temperature. […] The IC50 values were determined by measuring the absorbance of the test and standard substances. Three independent runs of the assays were conducted in triplicate.

hBuChE = biological target: T2, hBuChE (Homo sapiens, UniProt P06276); test: biochemical; format: biochemical; settings: for IC50: tris-HCl buffer pH 8.0, read-out: IC50 ± SE hBuChE
T2 construct: purchased Sigma Aldrich
Method: as §1

[1] = Antioxidant potential by DPPH assay
Source text: Assessment of the toxicity is the prerequisite study for the synthetic derivatives. […] AChE enzyme provides the site for the aggregation of the Aβ1–42.

SH-SY5Y cell line = test: Cell line-based toxicity study (MTT assay); settings: 72 h
Method: In recent decades, in vitro cell line research has become commonplace since they are useful for primary optimization and mechanistic investigations before toxicological studies on animals.[29]
Briefly, the cell lines (density 1 × 10^4 cells per wells) were plated in 96 well plates and incubated for 24 h at 37 °C in a humidified atmosphere with 5% CO2. […] The absorbance was measured at 570 nm, and the percent cell viability was calculated. Each treatment was executed in triplicate and data were presented as a percentage of the control.

Aβ1–42 = test system: T3, Aβ1–42; test: AChE-induced Aβ1–42 aggregation assay (ThT); format: biochemical
T3 construct: Aβ1–42, purchased from Sigma, was dissolved in 10 mM phosphate buffer; purchased Sigma
Method: The Aβ oligomers and aggregates formed with or without AChE and metal ions induce multifaceted toxicity leading to neuronal cell death. […] Aβ1–42, purchased from Sigma, was dissolved in 10 mM phosphate buffer (PBS) of pH 7.5 to get a stock concentration of […]. The test compounds were dissolved in the DMSO and further diluted with PBS. Different proportions of the Aβ1-42: Inhibitor (1 : 0.05, 1 : 1, 1 : 2) were used in the ThT assay. […] The mixtures were incubated at room temperature for 48 hours in the dark.

T1 sequence (P22303 32-614): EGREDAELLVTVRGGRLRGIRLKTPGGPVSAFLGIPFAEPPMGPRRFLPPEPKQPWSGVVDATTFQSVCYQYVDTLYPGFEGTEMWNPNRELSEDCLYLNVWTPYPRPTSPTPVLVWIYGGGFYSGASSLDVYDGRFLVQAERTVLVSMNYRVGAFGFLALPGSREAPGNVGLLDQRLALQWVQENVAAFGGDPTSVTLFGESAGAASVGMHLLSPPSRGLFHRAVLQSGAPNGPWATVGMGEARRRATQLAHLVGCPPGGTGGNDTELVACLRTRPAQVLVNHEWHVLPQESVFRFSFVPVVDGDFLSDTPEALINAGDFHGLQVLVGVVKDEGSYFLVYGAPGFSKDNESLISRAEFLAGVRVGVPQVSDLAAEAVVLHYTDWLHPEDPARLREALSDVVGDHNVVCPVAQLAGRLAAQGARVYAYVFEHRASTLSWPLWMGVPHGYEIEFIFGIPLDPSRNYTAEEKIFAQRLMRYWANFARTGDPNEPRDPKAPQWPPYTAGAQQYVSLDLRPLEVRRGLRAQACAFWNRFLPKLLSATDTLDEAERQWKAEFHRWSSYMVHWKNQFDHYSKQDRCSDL

Row | SMILES | Selectivity ratio (hAChE) | IC50 (hAChE) | IC50 (hBuChE) | % free radicle scavenging, mean ± SE ([1]; 50 μM) | % free radicle scavenging, mean ± SE ([1]; 100 μM) | BuChE inhibition (in words) (hBuChE) | concentration with no significant toxicity (SH-SY5Y cell line) | effect on AChE-induced Aβ1–42 aggregation (in words) (Aβ1–42; 0.5, 10, 20 μM, 48 h incubation) | AChE-induced Aβ aggregation inhibited (Aβ1–42; tested at 0.5, 10 and 20 μM)
1 | COc1ccc2c(c1)c(CC(=O)NN=Cc1cccc(O)c1)c(C)n2C(=O)c1ccc(Cl)cc1 [IND-24, (1-(4-Chlorobenzoyl)-5-methoxy-2-methyl-1H-indol-3-yl)-N′-(3-hydroxybenzylidene) aceto-hydrazide] | 7.83 | 12.5 ± 0.143 µM | 98.18 ± 0.12 µM | 17.68 ± 0.478% | 34.34 ± 1.333% | – | – | – | –
2 | COc1ccc2c(c1)c(CC(=O)NN=Cc1c(O)cccc1O)c(C)n2C(=O)c1ccc(Cl)cc1 [IND-40, (1-(4-Chlorobenzoyl)-5-methoxy-2-methyl-1H-indol-3-yl)-N′-(2,6-dihydroxybenzylidene)aceto-hydrazide] | 9.77 | 70.54 ± 0.133 µM | 689.12 ± 0.128 µM | 24.10 ± 0.889% | 50.39 ± 0.930% | – | – | – | –
3 | COc1ccc2c(c1)c(CC(=O)NN=Cc1cccc(O)c1O)c(C)n2C(=O)c1ccc(Cl)cc1 [IND-42, (1-(4-Chlorobenzoyl)-5-methoxy-2-methyl-1H-indol-3-yl)-N′-(2,3-dihydroxybenzylidene)aceto-hydrazide] | 5.44 | 122.75 ± 0.086 µM | 668.22 ± 0.133 µM | 18.21 ± 0.598% | 38.87 ± 1.012% | – | – | – | –
4 | O=C1O[C@H]([C@@H](O)CO)C(O)=C1O [Ascorbic acid, reference compound] | – | – | – | 42.66 ± 1.491% | 76.76 ± 0.708% | – | – | – | –
5 | COc1cccc(C=NNC(=O)Cc2c(C)n(C(=O)c3ccc(Cl)cc3)c3ccc(OC)cc23)c1 [IND-25, (1-(4-Chlorobenzoyl)-5-methoxy-2-methyl-1H-indol-3-yl)-N′-(3-methoxybenzylidene) aceto-hydrazide] | – | 264.23 ± 0.102 µM | > 1000 µM | 11.51 ± 0.748% | 27.99 ± 1.127% | inactive on the BuChE enzyme | – | – | –
6 | COc1ccc2c(c1)c(CC(=O)NN=Cc1ccccc1OC)c(C)n2C(=O)c1ccc(Cl)cc1 [IND-31, (1-(4-Chlorobenzoyl)-5-methoxy-2-methyl-1H-indol-3-yl)-N′-(2-methoxybenzylidene)aceto-hydrazide] | – | 421.22 ± 0.086 µM | > 1000 µM | 9.75 ± 0.625% | 26.43 ± 0.887% | inactive on hBuChE | – | – | –
7 | COc1ccc2c(c1)c(CC(=O)NN=Cc1ccc(O)cc1)c(C)n2C(=O)c1ccc(Cl)cc1 [IND-30, (1-(4-Chlorobenzoyl)-5-methoxy-2-methyl-1H-indol-3-yl)-N′-(4-hydroxybenzylidene)aceto-hydrazide] | 22.92 | 4.16 ± 0.063 µM | 95.34 ± 0.144 µM | 15.19 ± 0.881% | 30.65 ± 1.010% | – | ≤ 30000 µM | effective only at the higher dose (20 μM); also recorded: decreased Aβ aggregation in a concentration-dependent manner; also recorded: active at 20 μM | ~50%
